Test system: immobilized GST-tagged bait protein domains
Experiment: ProP-PD phage selections (HD2 P8, sublibraries, HD2 P3, HD1 P8) with NGS and confidence level
Type: binding, human
Settings: for HD confidence / HD mean counts / HD count proportions: HD1 P8 library; for HD mean counts: mean NGS counts over replicate selections; for HD count proportions: mean proportion of NGS counts
[1] = HD2 library, bait PDCD6IP_Alix-V-domain__Q8WUM4_360_702, benchmark motif instance, in_library_check FALSE, in_library_coverage 0
[2] = bait MAP1LC3A_ATG8 (Q9H492 2-121), HD2 library, benchmark motif instance recovered in the ProP-PD selection (TRUE/FALSE)
[3] = bait MAP1LC3B_ATG8 (Q9GZQ8 2-119), HD2 library, benchmark motif instance recovered in the ProP-PD selection (TRUE/FALSE)
[4] = bait KPNA4_Arm (O00629 68-487), HD2 library, benchmark motif instance recovered in the ProP-PD selection (TRUE/FALSE)
[5] = bait SIN3A_PAH__Q96ST3_295_383, HD2 library, whether the validated benchmark motif instance was recovered in the ProP-PD selection (TRUE/FALSE)
[6] = HD2 library, bait SUMO1_SUMO__P63165_1_101, known motif instance of the benchmarking set found (TRUE) or not found (FALSE) among selected peptides
[7] = library HD2, bait EPS15_EH__P42566_121_215, whether the validated benchmark motif instance was recovered in the ProP-PD selection (TRUE/FALSE)
[8] = bait CALM1_EF-hand__P0DP23_2_149, library HD2, benchmarking set of validated motif instances, TRUE = motif instance recovered in the ProP-PD selection
[9] = bait OXSR1___O95747_434_527, HD2 library, whether the validated benchmark motif instance was recovered in the ProP-PD selection (TRUE/FALSE)
[10] = bait AP2B1_adaptin__P63010_700_937, confidence level (4 = High, 2-3 = Medium, 1 = Low)
[11] = bait AP2B1_adaptin__P63010_700_937
[12] = library HD2, bait VASP_EVH1__P50552_1_114, validated benchmark motif instance, in_library_check TRUE, TRUE/FALSE = instance recovered in ProP-PD selection
[13] = library HD2, bait USP7_MATH-TRAF__Q93009_53_206, validated benchmark motif instance, in_library_check TRUE, TRUE/FALSE = instance recovered in ProP-PD selection
[14] = library HD2, bait WDR5_WD_1234567_P61964_21_334, validated benchmark motif instance, in_library_check TRUE, TRUE/FALSE = instance recovered in ProP-PD selection
[15] = library HD2, bait KLC1_TPR__Q07866_203_497, whether the validated benchmark motif instance was recovered in the ProP-PD selection (TRUE/FALSE)
[16] = HD2 library, bait TNKS_TANK-peptide-bind__O95271_174_649, known motif instance of the benchmarking set found (TRUE) or not found (FALSE) among selected peptides
[17] = bait SUMO1_SUMO__P63165_1_101, HD2 library, confidence level (1-4) of best matching selected peptide
[18] = bait SUMO1_SUMO__P63165_1_101, HD2 library, specificity score of best matching selected peptide
[19] = bait SUMO1_SUMO__P63165_1_101, HD2 library, whether the validated benchmark motif instance was recovered in the ProP-PD selection (TRUE/FALSE)
[20] = HD2 library, bait CALM1_EF-hand__P0DP23_2_149, benchmark motif instance, in_library_check FALSE, in_library_coverage 0

-----MSLYPSLEDLKVDK [SDCBP 3-7]
motif_found [1]: FALSE

--MELNSLLILLEAAEYLERRDREA [MXD4 6-16]
motif_found (HD2 library, bait SIN3A_PAH__Q96ST3_295_383, benchmark motif instance, in_library_check FALSE, in_library_coverage 0): FALSE

-MDAATLTYDTLRFAEFED
motif_found [2]: FALSE
motif_found [3]: FALSE

-MNSPGGRGKKKGSGGASNPV
motif_found [4]: FALSE

AAAAYVDHFAAECLVSMSSRAVVH
motif_found [5]: FALSE

AAALPQPEVILLDSDLDEPIDL
motif_found [6]: FALSE

AAAVRMNIQMLLEAADYLERREREA
motif_found [5]: FALSE

AAGPSVASSTNPFQTN
best_specificity (library HD2, bait EPS15_EH__P42566_121_215, best matching peptide): 1
best_confidence (library HD2, bait EPS15_EH__P42566_121_215, confidence level of best matching peptide (4 High, 2-3 Medium, 1 Low)): 3
motif_found [7]: TRUE

AAQATGTTNPFLL------
motif_found [7]: FALSE

AASVNANFAHFDNFPK
HD2_endomembrane confidence (bait AP2B1_adaptin__P63010_700_937, HD2 P8 endomembrane sublibrary, confidence level (4 = High, 2-3 = Medium, 1 = Low)): 4

ADTPPPAYLPPEDPMT
best_confidence (library HD2, bait YAP1_WW_1_P46937_169_207, confidence level of best matching selected peptide (4 High, 2-3 Medium, 1 Low)): 2
best_specificity (library HD2, bait YAP1_WW_1_P46937_169_207, specificity score of best matching selected peptide): 1
motif_found (library HD2, bait YAP1_WW_1_P46937_169_207, validated benchmark motif instance, in_library_check TRUE, TRUE/FALSE = instance recovered in ProP-PD selection): TRUE

AEERVVVISSSE
motif_found [6]: FALSE

AESSQAVMSLPKLQQV
HD2 confidence (bait ANKRA2_Ank__Q9H9E1_142_313, library HD2 P8): 4

AFIIWLARRLKKGKK [SELL]
motif_found [8]: FALSE

AGVFKMGRFQVSVAADGAQ
motif_found [9]: FALSE

AIPWAAFPAVSGVHLS
HD confidence [10]: 4
HD mean counts [11]: 2.25
HD count proportions [11]: 0.0009118
HD2 confidence (bait AP2B1_adaptin__P63010_700_937, HD2 P8 library, confidence level (4 = High, 2-3 = Medium, 1 = Low)): 3

AKNGAASKRAFKQSPPAVPALGAGVKKRRHGDEDTYY
motif_found [4]: FALSE

AMICYRKKRKGKLTLEDQAT
motif_found [4]: FALSE

APLEEEIFPSPPPPPEEEG
motif_found [12]: FALSE

APPVSGTFKFNTDAAEFIPQEKKNSGL
motif_found (bait PABP-B_PABP__P11940_544_623, HD2 library, whether the validated benchmark motif instance was recovered in the ProP-PD selection (TRUE/FALSE)): FALSE

AQCSTSDSACRISPGQ
best_confidence (library HD2, bait USP7_MATH-TRAF__Q93009_53_206, confidence level of best matching selected peptide (4 High, 2-3 Medium, 1 Low)): 2
best_specificity (library HD2, bait USP7_MATH-TRAF__Q93009_53_206, specificity score of best matching selected peptide): 1
motif_found [13]: TRUE

AQSMVSGSHCTPPPPY
motif_found (bait NEDD4_WW_4 (P46934 890-928), HD2 library, benchmark motif instance recovered in the ProP-PD selection (TRUE/FALSE)): TRUE
best_confidence (bait NEDD4_WW_4 (P46934 890-928), HD2 library, confidence level (1-4) of best matching peptide): 4
best_specificity (bait NEDD4_WW_4 (P46934 890-928), HD2 library, specificity score of best matching peptide): 0.99

AQSPLPSTNPFQPNGLAPG
motif_found [7]: FALSE

ARKEVIRNKIRAIGKMARVFSVLR,VIRNKIRAIGKMARVFS,KEVIRNKIRAIGKMARVFS [PPP3CA]
motif_found [8]: FALSE

ARTKQ
motif_found [14]: FALSE

ARTKQTA
motif_found [14]: FALSE

ASDDSNGLEWENDFVSAEMDDNGN
motif_found [15]: FALSE

ASFTEDAPRPPVPGEEGELVST
motif_found [16]: FALSE

ASSATRELDELMASLSDFKIQGL
motif_found (bait PTK2_Focal-AT__Q05397_891_1050, HD2 library, whether the validated benchmark motif instance was recovered in the ProP-PD selection (TRUE/FALSE)): FALSE

ASTS
motif_found [13]: FALSE

ATGSDSSGVIDLTMDDEESG
motif_found [6]: FALSE

ATLDALLAALRRIQRAD
motif_found (library HD2, bait CALM1_EF-hand__P0DP23_2_149, motif instance NOT in library (in_library_check FALSE, in_library_coverage 0)): FALSE

ATQCDPEEIIVLSDSD-------
motif_found [6]: FALSE

AVPSVPSTDWEDGDLTDTVSGP
motif_found [15]: FALSE

CNSDRVLKRSAEGSNPPKPLKKLRFDIEGSDE
motif_found [4]: FALSE

CRRPLSRTRNPADGIPAPESSS
motif_found [16]: FALSE

DAPIILSDSEEEEMIILEPDKNPKK
motif_found [6]: FALSE

DAQAGKEPGGSRAHSSHLK
motif_found [13]: FALSE

DATLCSGRFTISTLLS
best_confidence (bait OXSR1___O95747_434_527, HD2 library, confidence level (1-4) of best matching selected peptide): 2
best_specificity (bait OXSR1___O95747_434_527, HD2 library, specificity score of best matching selected peptide): 1
motif_found [9]: TRUE

DDDSSKDSGFTIVSPL
motif_found [2]: TRUE
best_confidence (bait MAP1LC3A_ATG8 (Q9H492 2-121), HD2 library, confidence level (1-4) of best matching peptide): 2
best_specificity (bait MAP1LC3A_ATG8 (Q9H492 2-121), HD2 library, specificity score of best matching peptide): 1

DDDVLIVYELTPTAEQ
best_confidence [17]: 2
best_specificity [18]: 1
motif_found [19]: TRUE

DDGLDEAFSRLAQSRT,WELDDGLDEAFSRLAQSRTNPQVLD [LDLRAP1]
motif_found (bait AP2B1_adaptin__P63010_700_937, library HD2, benchmarking set of validated motif instances, TRUE = motif instance recovered in the ProP-PD selection): TRUE

DDIMPAVKTVIRSIRILKFLVAKRKF [KCNQ4 524-549]
motif_found [20]: FALSE

DDPDAAELNPFGDPDSEEP
motif_found [7]: FALSE

DEIVDLTCESLEPVVV
best_confidence [17]: 2
best_specificity [18]: 1
motif_found [19]: TRUE

DFPPPPPDLEQLRLTD
best_confidence (library HD2, bait VASP_EVH1__P50552_1_114, confidence level of best matching selected peptide (4 High, 2-3 Medium, 1 Low)): 2
best_specificity (library HD2, bait VASP_EVH1__P50552_1_114, specificity score of best matching selected peptide): 1
motif_found [12]: TRUE

DGGTTFEHLWSSLEPD
motif_found (bait MDM2_p53-binding-domain (Q00987 17-125), HD2 library, benchmark motif instance recovered in the ProP-PD selection (TRUE/FALSE)): FALSE

DGNLYPRLYPELSQYMGLS [SDCBP 49-53]
motif_found [1]: FALSE

DGTISVPETWAKFSND
HD confidence [10]: 4
HD mean counts [11]: 1.5
HD count proportions [11]: 0.0006297

DIDQMFSTLLGEMDLLTQSLGVDT
motif_found (HD2 library, bait TLN1_PTB__Q9Y490_309_401, known motif instance of the benchmarking set found (TRUE) or not found (FALSE) among selected peptides): FALSE

DKAITDRVILLQKVIRGFKDRSNFLKLKNA [MYO7A 748-763]
motif_found [20]: FALSE

DKEDDQEHPSEKQPSGAESGTLARASLALPTSSLSRTASQSSSHRGWEILRQNTLGHLNLGLNLSEGDGEE [TRPV5]
motif_found [8]: FALSE

DLRKIPDSNPFDATAGYRS
motif_found [7]: FALSE

DNEKECIIVWEKK
motif_found [6]: FALSE

DPSMDKAAVKIQAAFKGYKVRKEMKQQEGPM [OBSCN]
motif_found [8]: FALSE

DRHRIEEKRKRTYETFKSIMK [RELA 301-307]
motif_found (HD2 library, bait KPNA4_Arm__O00629_68_487, benchmark motif instance, in_library_check FALSE, in_library_coverage 0): FALSE

DSFYNNSYNPFKEVQTPQY
motif_found [7]: FALSE

DSSCDTDDFVMVPAQFPGD
motif_found [2]: FALSE
motif_found [3]: FALSE

DSSKDSGFTIVSPLDI
motif_found [3]: TRUE
best_confidence (bait MAP1LC3B_ATG8 (Q9GZQ8 2-119), HD2 library, confidence level (1-4) of best matching peptide): 4
best_specificity (bait MAP1LC3B_ATG8 (Q9GZQ8 2-119), HD2 library, specificity score of best matching peptide): 1

DTGKENEMDWDDSALTITVNPMET
motif_found [15]: FALSE

DTHAKWEQATKLILNY
confidence (library HD, bait CALM1_EF-hand__P0DP23_2_149, ProP-PD peptides with disease-related mutations): 3

DTLWRPMPKLAPLGLKVAN
motif_found (library HD2, bait ZMYND11_coiled-coil-MYND__Q15326_480_602, validated benchmark motif instance, in_library_check TRUE, TRUE/FALSE = instance recovered in ProP-PD selection): FALSE
